Results: patent US11192899B2 (MERCK PATENT GMBH, priority 2017, dated 2021)
Where two headings read alike, the source gives them in different places.

Tests used:
Format in all cases: cell-based
[1] = molecular target: T1, human A3 receptor (Homo sapiens, UniProt P0DMS8); assay: cAMP HTRF functional assay, recombinant CHO cells expressing human A3 receptor, forskolin and agonist IB-MECA
T1 construct: expressed in transfected cells; host or cells: CHO
T1 sequence (P0DMS8 1-318): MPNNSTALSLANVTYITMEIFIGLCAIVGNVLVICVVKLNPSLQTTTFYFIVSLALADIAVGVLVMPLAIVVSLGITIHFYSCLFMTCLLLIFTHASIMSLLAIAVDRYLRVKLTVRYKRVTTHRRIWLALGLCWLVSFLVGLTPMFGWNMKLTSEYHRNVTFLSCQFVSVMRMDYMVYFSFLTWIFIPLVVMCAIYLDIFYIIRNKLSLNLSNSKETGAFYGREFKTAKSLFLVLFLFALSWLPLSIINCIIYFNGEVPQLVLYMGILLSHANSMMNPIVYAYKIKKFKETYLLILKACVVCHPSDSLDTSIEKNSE
Method: (§1) The functional activities of human A2A, A2B, A1 and A3 receptors were determined by quantification of cAMP, being the second messenger for adenosine receptors.
(§2) For human A1 and A3 receptors, recombinant CHO cells, expressing either A1 or A3-receptor, were used. As both receptors couple to Gi proteins, the assay protocol was adapted:
(§3) Cells were seeded into 384-well plates, forskolin, test compounds and agonists (CPA for A1- and IB-MECA for A3-receptor) were added. After 30 min incubation, HTRF reagents (cAMP dynamic 2, Cis Bio) were added and the cellular cAMP levels were determined using the ENVISION (Perkin Elmer) plate reader.
(§4) Obtained raw data were normalized against the inhibitor control and the neural control (DMSO) and the normalized data were fitted using GeneData software.

[2] = molecular target: T2, human A2A receptor (Homo sapiens, UniProt P29274); assay: cAMP HTRF functional assay, recombinant HEK293 cells expressing human A2A receptor, agonist NECA
T2 construct: expressed in transfected cells; host or cells: HEK293
Method: as §1, §4

[3] = molecular target: T3, human A1 receptor (Homo sapiens, UniProt P30542); assay: cAMP HTRF functional assay, recombinant CHO cells expressing human A1 receptor, forskolin and agonist CPA
T3 construct: expressed in transfected cells; host or cells: CHO
T3 sequence (P30542 1-326): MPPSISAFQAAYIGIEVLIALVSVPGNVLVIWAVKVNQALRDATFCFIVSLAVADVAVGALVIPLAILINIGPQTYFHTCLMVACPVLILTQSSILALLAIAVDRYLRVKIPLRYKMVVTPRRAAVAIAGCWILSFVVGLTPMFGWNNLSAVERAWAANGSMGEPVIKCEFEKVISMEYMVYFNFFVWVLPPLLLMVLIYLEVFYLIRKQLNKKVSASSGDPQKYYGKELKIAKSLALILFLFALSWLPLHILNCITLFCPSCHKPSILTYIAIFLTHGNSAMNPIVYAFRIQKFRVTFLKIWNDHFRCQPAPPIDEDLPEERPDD
Method: as §1, §2, §3, §4

[4] = molecular target: T4, A2B receptors (Homo sapiens, UniProt P29275); assay: cAMP HTRF functional assay, recombinant HEK293 cells expressing human A2B receptor, agonist NECA; set-up: expressed in transfected cells; host or cells: HEK293
T4 sequence (P29275 1-332): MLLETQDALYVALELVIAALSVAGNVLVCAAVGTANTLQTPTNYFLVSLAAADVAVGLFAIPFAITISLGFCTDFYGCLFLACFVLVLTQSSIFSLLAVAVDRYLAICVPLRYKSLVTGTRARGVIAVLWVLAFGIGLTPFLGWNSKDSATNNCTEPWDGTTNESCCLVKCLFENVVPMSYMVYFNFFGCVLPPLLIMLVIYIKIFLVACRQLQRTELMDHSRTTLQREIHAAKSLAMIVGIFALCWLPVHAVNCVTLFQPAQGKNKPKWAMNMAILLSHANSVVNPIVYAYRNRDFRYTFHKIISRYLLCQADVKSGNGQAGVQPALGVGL
Method: as §1, §4

[5] = recombinant HEK293 cells, cAMP, agonist NECA

T2 sequence (P29274 whole entry): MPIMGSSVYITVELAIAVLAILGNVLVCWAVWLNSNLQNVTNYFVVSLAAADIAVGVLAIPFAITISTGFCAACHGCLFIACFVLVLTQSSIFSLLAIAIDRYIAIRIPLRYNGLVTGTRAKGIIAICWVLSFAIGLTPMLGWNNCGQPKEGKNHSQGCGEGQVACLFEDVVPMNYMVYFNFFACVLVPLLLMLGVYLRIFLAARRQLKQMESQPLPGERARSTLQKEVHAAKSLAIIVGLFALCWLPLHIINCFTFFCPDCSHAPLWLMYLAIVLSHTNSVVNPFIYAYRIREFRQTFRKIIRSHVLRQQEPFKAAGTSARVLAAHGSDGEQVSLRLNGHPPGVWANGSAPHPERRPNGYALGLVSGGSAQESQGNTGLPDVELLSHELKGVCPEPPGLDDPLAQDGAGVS

Molecule | IC50 [1] [µM] | IC50 [2, 5] [µM] | IC50 [3] [µM] | IC50 [4, 5] [µM] | IC50 [2] [µM] | IC50 [4] [µM]
4-hydroxy-N-[8-methoxy-5-(2-methylphenyl)quinoxalin-2-yl]-4-methylpiperidine-1-carboxamide [compound 29] | > 1 | < 0.1 | > 1 | < 1 |  | 
COc1ccc(C2CCOCC2)c2ncc(NC(=O)c3coc(C)n3)nc12 [compound 16] | > 1 |  | > 1 |  | < 0.1 | > 1
COc1ccc(-c2ccccc2)c2ncc(NC(=O)c3cnc(C)s3)nc12 [compound 48] | > 1 |  | < 1 |  | < 0.01 | < 0.1
COc1ccc(-c2ccccc2)c2ncc(NC(=O)c3cnc(C)o3)nc12 [compound 105, N-(8-methoxy-5-phenylquinoxalin-2-yl)-2-methyl-1,3-oxazole-5-carboxamide] | < 1 |  | < 1 |  | < 0.01 | < 0.1
COc1ncc(C2CCOCC2)c2ncc(NC(=O)C3CC3)nc12 [compound 106, Cyclopropanecarboxylic acid [5-methoxy-8-(tetrahydro-pyran-4-yl)-pyrido[3,4-b]pyrazin-3-yl]-amide] | > 1 |  | < 1 |  | < 0.01 | < 0.1
COCCOCc1cccc(-c2ccc(OC)c3nc(NC(=O)N4CCC(C)(O)CC4)cnc23)c1 [compound 118, 4-hydroxy-N-(8-methoxy-5-{3-[(2-methoxyethoxy)methyl]phenyl}quinoxalin-2-yl)-4-methylpiperidine-1-carboxamide] | > 1 |  | > 1 |  | < 0.1 | > 1
COc1ccc(-c2ccccc2F)c2ncc(NC(=O)C3CC3)nc12 [compound 120, N-[5-(2-fluorophenyl)-8-methoxyquinoxalin-2-yl]cyclopropanecarboxamide] | < 1 |  | < 1 |  | < 0.01 | < 0.1
COc1ccc(-c2cccnc2)c2ncc(NC(=O)C3CC3)nc12 [compound 121, N-[8-methoxy-5-(pyridin-3-yl)quinoxalin-2-yl]cyclopropanecarboxamide] | < 1 |  | < 1 |  | < 0.1 | < 1
COc1ccc(N2CCCCCC2)c2ncc(NC(=O)C3CC3)nc12 [compound 122, N-[5-(azepan-1-yl)-8-methoxyquinoxalin-2-yl]cyclopropanecarboxamide] | > 1 |  | > 1 |  | < 0.1 | 
COc1ccc(-c2cccc(F)c2F)c2ncc(NC(=O)C3CC3)nc12 [compound 123, N-[5-(2,3-difluorophenyl)-8-methoxyquinoxalin-2-yl]cyclopropanecarboxamide] | < 1 |  | < 1 |  | < 0.01 | < 0.1
COc1ccc(-c2cc(F)ccc2F)c2ncc(NC(=O)C3CC3)nc12 [compound 124, N-[5-(2,5-difluorophenyl)-8-methoxyquinoxalin-2-yl]cyclopropanecarboxamide] | < 1 |  | < 1 |  | < 0.01 | > 1
COc1ccc(-c2ccc(F)cc2)c2ncc(NC(=O)C3CC3)nc12 [compound 126, N-[5-(4-fluorophenyl)-8-methoxyquinoxalin-2-yl]cyclopropanecarboxamide] | < 1 |  | < 1 |  | < 0.01 | < 0.1
COc1ccc(-c2cc(F)ccc2F)c2ncc(NC(=O)c3cnc(C)o3)nc12 [compound 128, N-[5-(2,5-difluorophenyl)-8-methoxyquinoxalin-2-yl]-2-methyl-1,3-oxazole-5-carboxamide] | < 1 |  | > 1 |  | < 0.1 | 
